Reference: patent US6528685B2 (Teva Pharmaceutical Industries, Ltd., priority 1994, dated 2003)
“And” between values parts separate entries of the source, which are not always exact repeats. Identical values can stand only once. Counter-ions that a name gives are not always drawn. Like-named read-outs stand apart in the source and are kept apart here.

Columns and labels:
[1] = system: Mechanically dissociated Neonatal Rat Cerebellum; assay: Reversal of NMDA induced cell death, neonatal rat cerebellum cultures; assay type: cell-based; conditions: for SURVIVING CELL IN CULTURE: relative to control (100%); for PERCENT PROTECTION: cell survival minus NMDA effect (30%); for EFFECTIVE PROTECTION: percent protection x 100/70
Procedure: The cerebellum was aseptically dissociated from 6 or 7-day old rat pups and placed in a 15 ml sterile plastic conical tube containing 3 ml of Dulbecco's modified Eagle's medium (DMEM) with a high glucose concentration ([…]) and 2 mM (v/v) L-glutamine and an antibiotic antimitotic mixture. The cerebella were then dissociated after 20-25 passages through a sterile 13 gauge, 10 cm long stainless steel needle attached to a 5 ml syringe with an inserted 45 micrometer pore nylon sieve. The dissociated cells were centrifuged at 200 g for 5 minutes. The supernatant was discarded and the cells resuspended in medium enriched with 15% (v/v) heat inactivated fetal calf serum. Cell viability was determined by the tryptan blue exclusion test.
Cells were plated at a density of 200/mm^2 on poly-L-lysine coated surfaces. Poly-L-lysine coated glass coverslips were prepared at least one hour in advance of plating by immersing sterile coverslips in sterile distilled water solution containing 15 microgram/ml poly-L-lysine, and washing in sterile water just prior to use. The plated cells were covered with enriched medium and incubated at 37° C. in an atmosphere of 5% CO2 in air and 97% humidity. After three days in culture, the media was replaced with media containing the desired test compound. Each test compound was tested in duplicate. Toxic-dose response was determined for each compound.
Four groups were run in each set of experiments;
I. Control, consisting of enriched media alone,
II. N-methyl-D-aspartate (NMDA, 1 mM for 3 hours) as the cytotoxic challenge,
III. Test compound plus NMDA, and
IV. Positive control, spermine(0.01 micromoles) plus NMDA.
Nerve cell survival was evaluated by phase contrast microscopy and tryptan blue staining after 24 hours.
Surviving cells in culture are measured relative to control (100%) as described above. Percent protection is the Cell Survival for the test compound minus the NMDA effect. Thus, maximal protection is 100% minus 30% NMDA effect i.e. 70%. The Effective Protection was calculated as the percent of the Percent Protection (X) divided by the maximal protection value (e.g. X×100/70).

mongolian gerbils = assay: Global brain ischemia in gerbils; assay type: in vivo, mongolian gerbil; conditions: 3 injections, fraction of hippocampi protected from ischemia, 14 days post-ischemia
Procedure: Male mongolian gerbils, aged 2.5-5 months, housed 4-8 in a cage, were supplied freely with food and water and maintained at 24° C. with a 12 hour day/night cycle. […] Each artery was clamped for 5 minutes with aneurysm clips to produce global brain ischemia. The anesthesia was discontinued upon clamping. After 5 minutes the clamps were removed and the wound closed with skin clips.
For treatment, the test compound or vehicle were injected intra-peritoneally (ip) in a volume of 50 microliters of solvent per 10 g body weight. The first injection was given two minutes after clamp removal, and thereafter daily for the next 2 post-operative days (total of 3 injections).
Seven groups each of 4-8 animals were compared:
V. Ischemia—Test compound treated, one sub-group per concentration tested,
VI. Ischemia and pentobarbital (40 mg/kg) as positive control).
Analysis of neuronal damage was performed 14 days post-ischemia by counting pyramidal neurons throughout the CA1 layer of the anterior hippocampus in […] thick (paraffin) coronal brain sections stained with hematoxylin and erosin.
Percent Protection values represent the fraction of hippocampi protected from ischemia in a group of animals treated with the stated dose of compound.

mice [2] = assay: Maximal electroshock (MES) model, mice; conditions: mice; for MICE MES ED50: intraperitoneal (i.p.) administration
rats [3] = assay: Neurotoxicity in rats, positional sense test and gait stance test; conditions: rats p.o.; positional sense test and gait stance test
Procedure: (§1) Neurotoxicity of the claimed agents was also assessed in mice (i.p. administration) by the rotorod ataxia test and/or in rats (p.o. administration) by positional sense test and gait stance test. […] The term quantitating the neurotoxicity is the medial neurological toxic dose (TD50), was determined in the above tests.

mice [4] = conditions: mice i.p.
rats [5] = assay: Maximal electroshock (MES) model, rats; conditions: rats, oral (p.o.) administration; median effective dose
mice [6] = assay: Neurotoxicity in mice, rotorod ataxia test; conditions: mice i.p., rotorod ataxia test
Procedure: as §1

rats [7] = conditions: rats p.o.

SMILES	MICE MES ED50 (mice [2]) [mg/kg]	RATS TD50 (rats [3]) [mg/kg]	MICE scMet ED50 PI (mice [4]) [mg/kg]	RATS MES 50 (rats [5]) [mg/kg]	MICE TD50 (mice [6])	further results
Cl.N[C@@H]1CCc2ccc(O)cc21 [Compound 35, (R)-6-Hydroxy-1-aminoindan.HCl]						SURVIVING CELL IN CULTURE ([1]; 0.005 μM + NMDA 1 mM 3 hours): 60%; PERCENT PROTECTION ([1]; 0.005 μM + NMDA): 30%; EFFECTIVE PROTECTION ([1]; 0.005 μM + NMDA): 43%; SURVIVING CELL IN CULTURE ([1]; 0.010 μM + NMDA 1 mM 3 hours): 34%; PERCENT PROTECTION ([1]; 0.010 μM + NMDA): 4%; EFFECTIVE PROTECTION ([1]; 0.010 μM + NMDA): 6%; SURVIVING CELL IN CULTURE ([1]; 0.100 μM + NMDA 1 mM 3 hours): 30%; PERCENT PROTECTION ([1]; 0.100 μM + NMDA): 0%; EFFECTIVE PROTECTION ([1]; 0.100 μM + NMDA): 0%; PERCENT PROTECTION (mongolian gerbils; 0.1 mg/kg ip): 25.0%; PERCENT PROTECTION (mongolian gerbils; 1.0 mg/kg ip): 37.5%; PERCENT PROTECTION (mongolian gerbils; 10.0 mg/kg ip): 37.5%
Cl.NC(=O)CN[C@@H]1CCc2ccccc21 [D, (R)-Indanylglycinamide-HCl salt]	83	>180	>130			
CN[C@H]1CCc2ccccc21.Cl [Compound 14, (S)-N-Methyl-1-aminoindan.HCl]	<100	>142		94	100 mg/kg	RATS scMet ED50 PI (rats [7]): >71 mg/kg
NC(=O)CNC1CCc2ccccc21 (racemic) [Compound 3, (rac)-N-(2-Acetamido)-1-aminoindan.HCl]	<100	>50	36	<50	>100 mg/kg and 126 mg/kg	MICE MES ED50 (mice [2]; listed as 3*): 83 mg/kg; MICE scMet ED50 PI (mice [4]; listed as 3*): >130 mg/kg; MICE TD50 (mice [6]; listed as 3*): 127 mg/kg
NC(=O)CN[C@@H]1CCc2ccccc21 [Compound 1, (R)-N-(2-Acetamido)-1-aminoindan.HCl]	77	>50	>200	50	198 mg/kg	
NC(=O)CNC1CCc2ccc(F)cc21 (racemic) [Compound 5, (rac)-6-Fluoro-N-(2-acetamido)-1-aminoindan.HCl]	<100		>200		>300 mg/kg	activity in the MES model in mice, in words (mice [2]): showed activity; MICE MES ED50 (mice [2]; listed as 5*): 58 mg/kg; MICE TD50 (mice [6]; listed as 5*): 138 mg/kg
